In patent EP4501942A1, “PEPTIDOMIMETICS WITH ANTIVIRAL ACTIVITY” (priority 2023, dated 2025):
Where two headings read alike, the source gives them in different places.

Experiments:
[1] = target: SARS-CoV-2 M^pro protein (Severe acute respiratory syndrome coronavirus 2, UniProt P0DTD1); experiment: biochemical; details: for inhibition at 10 µM: read-out: % of inhibition at 10 µM; for IC50: three separate experiments in duplicate, read-out: IC50, mean±SD
[2] = in vitro
[3] = test system: SARS-CoV-2; experiment: microbe, parasite or virus in culture; assay type: cell-based
[4] = Cytotoxicity MTT assay in uninfected A549-ACE2 cells; assay type: cell-based; details: human
Method: To evaluate the cytotoxicity profile of the compounds MTT assays were performed in A549-ACE2 cells. Uninfected cells were incubated with a range of compound concentrations (from 100 to 1 µM) for forty-eight hours, time at which the MTT substrate [3-(4,5-dimethylthiazol-2-yl)-2,5-diphenyltetrazolium bromide] was added and the formation of formazan precipitates was evaluated two hours later, using a colorimetric readout. Vehicle-treated (DMSO) cells were used as reference (100 %).

[5] = test system: GFP-expressing recombinant vesicular stomatitis virus (VSV-GFP); experiment: microbe, parasite or virus in culture; assay type: cell-based; details: A549-ACE2, 16 h
[6] = in vitro; details: human
[7] = Severe acute respiratory syndrome coronavirus 2, SARS-CoV-2, A549-ACE2 cells, MOI 0.005, 48 h, read-out: EC50
[8] = Severe acute respiratory syndrome coronavirus 2, SARS-CoV-2, A549-ACE2 cells, MOI 0.005, 48 h, read-out: EC90
[9] = Severe acute respiratory syndrome coronavirus 2, A549-ACE2, 48 h
[10] = isolated SARS-CoV-2 M^pro, compound at 10 µM

SMILES	IC50 ([1]; isolated SARS-CoV-2 M^pro) [µM]	EC50 [3, 7] [µM]	EC90 [3, 8] [µM]	CC50 at 48 h [4] [µM]	further results
CCCC[C@@H](C#N)NC(=O)[C@]1(CC(C)C)[C@H](C)CN1C(=O)[C@@H](NC(=O)OC(C)(C)C)C(C)(C)C [Example 34, Boc-L-Tbg-(aS,β'R)-Azl-NH-[(1S)-1-cyano]pentane]					inhibition at 10 µM [1]: 0%; CC50 [2]: > 50 µM
CC(C)C[C@@]1(C(=O)N[C@H](C#N)C[C@@H]2CCNC2=O)[C@H](C)CN1C(=O)[C@@H](NC(=O)OC(C)(C)C)C(C)(C)C [Example 12]	4.7 ± 0.76	29	> 50	100	
Cc1ccc(OCC(=O)N[C@H](C(=O)N2C[C@@H](C)[C@@]2(Cc2ccccc2)C(=O)N[C@H](C#N)C[C@@H]2CCNC2=O)C(C)(C)C)cc1 [Example 17]	1.03	3	18	100	
C[C@@H]1CN(C(=O)[C@@H](NC(=O)OCc2ccccc2)C(C)(C)C)[C@]1(CCCCN)C(=O)N[C@H](C#N)C[C@@H]1CCNC1=O [Example 23]					inhibition at 10 µM [1]: 0%
CC(C)[C@H](NC(=O)OCC(F)F)C(=O)N1C[C@@H](C)[C@@]1(Cc1ccccc1)C(=O)N[C@H](C#N)C[C@@H]1CCNC1=O [Example 39]		0.4	2	> 50	
C[C@@H]1CN(C(=O)[C@H](CCCCNC(=O)OC(C)(C)C)NC(=O)OCc2ccccc2)[C@]1(Cc1ccccc1)C(=O)N[C@H](C#N)C[C@@H]1CCNC1=O [Example 20]		7	18	100	
CC(C)C[C@@]1(C(=O)N[C@H](C=O)C[C@@H]2CCNC2=O)[C@H](C)CN1C(=O)[C@@H](NC(=O)OCc1ccccc1)C(C)C [Example 27, Z-L-Val-(αS,β'R)-Azl-L-Ala(3S-2-oxopyrrolidin-3-yl)-H]	0.077 ± 0.02	1	5	> 100	EC50 [5]: > 50 µM; EC90 [5]: > 50 µM; CC50 [6]: > 50 µM
CC(C)(C)[C@H](NC(=O)C(F)(F)F)C(=O)N1C[C@H]2[C@@H]([C@H]1C(=O)N[C@H](C#N)C[C@@H]1CCNC1=O)C2(C)C [PF-07321332, nirmatrelvir, reference compound]				100	EC50 [3, 9]: < 0.2 µM; EC90 [3, 9]: < 0.2 µM
COC(=O)N[C@H](C(=O)N1C[C@@H](C)[C@@]1(Cc1ccccc1)C(=O)N[C@H](C#N)C[C@@H]1CCNC1=O)C(C)(C)C [Example 16]	0.94 ± 0.17	3	20	> 100	
C[C@@H]1CN(C(=O)[C@@H](NC(=O)OCc2ccccc2)C(C)(C)C)[C@]1(Cc1ccccc1)C(=O)N[C@H](C#N)C[C@@H]1CCNC1=O [Example 13]		4	15	> 100	
CC(C)[C@H](NC(=O)C(F)(F)F)C(=O)N1C[C@@H](C)[C@@]1(Cc1ccccc1)C(=O)N[C@H](C#N)C[C@@H]1CCNC1=O [Example 7]	0.2 ± 0.03	2	12	> 100	
C[C@@H]1CN(C(=O)[C@@H](NC(=O)OCc2ccccc2)C(C)(C)C)[C@]1(CCCCNC(=O)OC(C)(C)C)C(=O)N[C@H](C#N)C[C@@H]1CCNC1=O [Example 22]					inhibition at 10 µM [1]: 16%
CC(C)[C@H](NC(=O)OCc1ccccc1)C(=O)N1C[C@@H](C)[C@@]1(Cc1ccc(O)cc1)C(=O)N[C@H](C#N)C[C@@H]1CCNC1=O [Example 9]	6.43 ± 0.53				
C[C@@H]1CN(C(=O)[C@@H](NC(=O)OC(C)(C)C)C(C)(C)C)[C@]1(Cc1ccccc1)C(=O)N[C@H](/C=C/C(=O)OCc1ccccc1)C[C@@H]1CCNC1=O [Example 32]					inhibition at 10 µM [1]: 40%
CC(C)C[C@@]1(C(=O)N[C@H](C#N)C[C@@H]2CCNC2=O)[C@H](C)CN1C(=O)[C@@H](NC(=O)OCc1ccccc1)C(C)C [Example 1]	1.99 ± 1	5	20	> 100	
COC(=O)N[C@H](C(=O)N1C[C@@H](C)[C@@]1(Cc1ccccc1)C(=O)N[C@H](C=O)C[C@@H]1CCNC1=O)C(C)(C)C [Example 30, Methyloxycarbonyl-L-Tbg-(αS,β'R)-Azf-L-Ala(3S-2-oxopyrrolidin-3-yl)-CHO]	0.048 ± 0.004	15	25	> 100	
CC(C)C[C@]1(C(=O)N[C@H](C#N)C[C@@H]2CCNC2=O)[C@@H](C)CN1C(=O)[C@@H](NC(=O)OCc1ccccc1)C(C)C [Example 2]					inhibition at 10 µM [1, 10]: 0%
CC(C)[C@@H](CC(=O)N1C[C@@H](C)[C@@]1(Cc1ccccc1)C(=O)N[C@H](C#N)C[C@@H]1CCNC1=O)NC(=O)OC(C)(C)C [Example 26]					inhibition at 10 µM [1]: 28%

SMILES	IC50 ([1]; isolated SARS-CoV-2 M^pro) [µM]	EC50 [3, 7] [µM]	EC90 [3, 8] [µM]	CC50 at 48 h [4] [µM]	further results
CC(C)C(NC(=O)C1CC1)C(=O)N1CC(C)C1(Cc1ccccc1)C(=O)NC(C#N)CC1CCNC1=O [Example 8, Cyclopropylcarbonyl-L-Val-(αS,β'R)-Azf-NH[(1S)-1-cyano-2-[(3'S)-2'-oxopyrrolidin-3'-yl]ethane]	0.39 ± 0.05	8	31	> 100	
C[C@@H]1CN(C(=O)[C@@H](NC(=O)C(F)(F)F)C(C)(C)C)[C@]1(Cc1ccccc1)C(=O)N[C@H](C#N)C[C@@H]1CCNC1=O [Example 15]		2	13	> 100	
C[C@@H]1CN(C(=O)[C@@H](NC(=O)OCC(F)F)C(C)(C)C)[C@]1(CC1CCCCC1)C(=O)N[C@H](C#N)C[C@@H]1CCNC1=O [Example 37]		4	22	> 100	
CC(C)[C@H](NC(=O)OCc1ccccc1)C(=O)N1C[C@@H](C)[C@@]1(Cc1ccccc1)C(=O)N[C@H](C#N)C[C@@H]1CCNC1=O [Example 5]	0.13 ± 0.03	1	6	> 100	
C[C@@H]1CN(C(=O)[C@@H](NC(=O)OCc2ccccc2)C(C)(C)C)[C@]1(Cc1ccccc1)C(=O)N[C@H](C#N)Cc1c[nH]cn1 [Example 24]		18	40	> 100	inhibition at 10 µM [1]: 10%
Cc1c(-c2ccc(-c3ccccc3F)cc2)nc2ccc(F)cc2c1C(=O)O [Brequinar, reference compound]					EC50 [5]: < 0.6 µM; EC90 [5]: < 0.6 µM; CC50 [6]: > 50 µM
C[C@@H]1CN(C(=O)[C@@H](NC(=O)OC(C)(C)C)C(C)(C)C)[C@]1(CC1CCCCC1)C(=O)N[C@H](C#N)C[C@@H]1CCNC1=O [Example 35]		3	20	> 100	
CC(C)C[C@]1(C(=O)N[C@H](C#N)C[C@@H]2CCNC2=O)[C@@H](C)CN1C(=O)[C@@H](NC(=O)C(F)(F)F)C(C)C [Example 4]					inhibition at 10 µM [1, 10]: 0%
C[C@@H]1CN(C(=O)[C@@H](NC(=O)OCC(F)F)C(C)(C)C)[C@]1(Cc1ccccc1)C(=O)N[C@H](C#N)C[C@@H]1CCNC1=O [Example 18]		4	7	> 100	
CC(C)[C@H](NC(=O)OCc1ccccc1)C(=O)N1C[C@@H](C)[C@@]1(Cc1ccccc1)C(=O)N[C@H](C=O)C[C@@H]1CCNC1=O [Example 28, Z-L-Val-(αS,β'R)-Azf-L-Ala(3S-2-oxopyrrolidin-3-yl)-H]	0.005 ± 0.002	2	12	> 100	
CC(C)C[C@@]1(C(=O)N[C@H](C#N)C[C@@H]2CCNC2=O)[C@H](C)CN1C(=O)[C@@H](NC(=O)C(F)(F)F)C(C)C [Example 3]	2.58 ± 0.48	10	32	100	
C[C@@H]1CN(C(=O)[C@@H](NC(=O)C(F)(F)F)C(C)(C)C)[C@]1(CC1CCCCC1)C(=O)N[C@H](C#N)C[C@@H]1CCNC1=O [Example 38]	2.36 ± 0.75	25	> 25	> 100	
C[C@@H]1CN(C(=O)[C@@H](NC(=O)OCC(F)F)C(C)(C)C)[C@]1(Cc1ccccc1)C(=O)N[C@H](C=O)C[C@@H]1CCNC1=O [Example 31, 2,2-Difluoroethyloxycarbonyl-L-Tbg-(αS,β'R)-Azf-L-Ala(3S-2-oxopyrrolidin-3-yl)-H]	0.024 ± 0.002	3	11	> 100	
CC(C)C[C@@]1(C(=O)N[C@H](C#N)C[C@@H]2CCNC2=O)[C@H](C)CN1C(=O)[C@@H](NC(=O)OCC(F)F)C(C)(C)C [Example 33]	5.94 ± 0.69	16	> 25	> 100	
CC(C)[C@H](NC(=O)OCc1ccccc1)C(=O)N1C[C@@H](C)[C@@]1(Cc1c[nH]c2ccccc12)C(=O)N[C@H](C#N)C[C@@H]1CCNC1=O [Example 11]	4.74 ± 0.81	31	48	> 100	
CC(C)(C)[C@@H]1NC(=O)O[C@@H]2CCC[C@H]2OC/C=C/C(F)(F)c2nc3ccccc3nc2O[C@@H]2C[C@@H](C(=O)N[C@]3(C(=O)NS(=O)(=O)C4(C)CC4)C[C@H]3C(F)F)N(C2)C1=O [Glecaprevir, reference compound]					CC50 [2]: > 50 µM
C[C@@H]1CN(C(=O)[C@H](CCCCN)NC(=O)OCc2ccccc2)[C@]1(Cc1ccccc1)C(=O)N[C@H](C#N)C[C@@H]1CCNC1=O [Example 21]	3.66				
CC(C)[C@H](NC(=O)OCc1ccccc1)C(=O)N1C[C@@H](C)[C@@]1(Cc1ccc(OC(C)(C)C)cc1)C(=O)N[C@H](C#N)C[C@@H]1CCNC1=O [Example 10]					inhibition at 10 µM [1]: 9%
